Data set [1] deals with BCEC+ astrocyte co-cultures. The following applies: FIG. 2; earlier experiments (Gaillard 2000a); cited from earlier work.
The subject of a further data set is brain. Conditions: guinea pig, in vivo.
For data set [2], the system named is brain cortex. Kind of data set: In vivo brain distribution: HRP activity in brain cortex homogenate samples. Further details: species or system Guinea pigs. The following applies: 1.5 h after intracarotid bolus injection, 500 microgram/ml HRP equivalent in 0.5 ml saline (FIG. 18). As for the experimental part: Brain uptake of CRM197 or holo-transferrin (TrF) conjugated to HRP (2:1 weight/weight ratio) was determined 1.5 h after an intracarotid bolus injection of the conjugates (corresponding to a concentration of 500 microgram/ml in 0.5 ml saline of un-conjugated HRP), and compared to an equal concentration of free HRP, in young male Guinea pigs (Dunkin-Hartley HsdPoc:HD, 250-300 g). The proteins were conjugated to HRP by means of a HRP conjugation kit according to the manufacturers instructions (α Diagnostic International, San Antonio, Tex., USA). In addition, conjugated proteins were further purified on a HiPrep 16/60 column packed with Sephacryl S-200 HR matrix (Amersham Biosciences, UK). Briefly, the animals were anesthetized with isoflurane inhalation (4% induction, 1-1.5% maintenance) in an air/oxygen mixture (2:1). A cannula was placed in the carotid artery for blood sample collection and drug administration. […]
The cortex of perfused brains (and one non-perfused control brain) was dissected and weighted. […] Tissue/cells were lysed by an aqueous solution of 0.1% Na-deoxycholate (final concentration) before the HRP activity was detected in the clear supernatant of the spun-down homogenates using a standard colorimetric assay with the appropriate calibration curves and corrections for dilutions and protein content of the supernatants.

Data set [3] has as its system brain cortex. Conditions: 1.5 h after intracarotid bolus injection (FIG. 19).
The next data set addresses LPSS14 (DTR) (Bos taurus, UniProt E1BIN8). Format: cell-based, bovine.

LPSS14 (DTR), sequence (E1BIN8 24-208 limits assumed): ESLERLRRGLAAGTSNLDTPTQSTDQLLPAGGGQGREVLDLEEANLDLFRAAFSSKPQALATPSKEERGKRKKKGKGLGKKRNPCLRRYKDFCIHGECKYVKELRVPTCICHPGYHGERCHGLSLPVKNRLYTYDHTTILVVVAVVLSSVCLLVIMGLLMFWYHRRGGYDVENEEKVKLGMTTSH

As to `C[C@@H]1C[C@@H]([C@H](O)CC2CC(=O)NC(=O)C2)C(=O)[C@@H](C)C1` [cycloheximide], the “recovery of BCEC+ astrocyte co-cultures from LPS” value in data set [1] is reported as “completely inhibit the recovery phase”.

For “free HRP: un-conjugated horseradish peroxidase, a 40 kDa enzyme”, the “staining for CRM197 by immunohistochemistry for diphtheria toxin” value with brain is given as “not observed”. For the same compound, in the data set with brain cortex [2], the “HRP activity in brain cortex homogenate samples (homogenate, parenchyma, capillaries)” value is given as “below the detection limit”. In addition, the “TMB staining of cryosections of well-perfused brains” value with brain cortex [3] was “no visible staining”.

With heparin, on LPSS14 (DTR) (heparin 125 microgram/ml 1 h pretreatment, 100 ng/ml DT), the “toxicity consistent with a higher concentration of DT” value is 10 fold. Also, the “DT toxic effect took place earlier than untreated controls” value on LPSS14 (DTR) (heparin 125 microgram/ml 1 h pretreatment, 100 ng/ml DT (FIG. 9)) is recorded as “about 1 hour”. At LPSS14 (DTR) (pretreatment: CRM197 5 microgram/ml 1 h, heparin 125 microgram/ml 1 h, LPS 1 microgram/ml 2 h, BB94 10 micromolar 1 h (FIG. 8-10)), the “toxic effect after apical exposure to 100 ng/ml DT on pretreated BCEC” value is given as “increased”.
